Source: EP1737880B1, “17ALPHA-FLUORO-17BETA-HYDROXI[…], A METHOD FOR PRODUCTION THEREOF AND PHARMACEUTICAL COMPOSITIONS COMPRISING SAID COMPOUNDS” (Bayer Schering Pharma Aktiengesellschaft, priority 2004, dated 2005)

Assays:
Progesteronrezeptor = target: T1, Progesteronrezeptor (Oryctolagus cuniculus, UniProt P06186); assay: Binding to the progesterone receptor (relative binding affinity, tracer 3H-ORG 2058); details: Uterus-Cytosol, Kaninchen, geprimt, 0-4°C, 18 h, Referenzsubstanz Progesteron = 100%
T1 construct: Uterus-Cytosol, Kaninchen, geprimt; from tissue; host or cells: uterus cytosol of primed rabbits
T1 sequence (P06186 1-930): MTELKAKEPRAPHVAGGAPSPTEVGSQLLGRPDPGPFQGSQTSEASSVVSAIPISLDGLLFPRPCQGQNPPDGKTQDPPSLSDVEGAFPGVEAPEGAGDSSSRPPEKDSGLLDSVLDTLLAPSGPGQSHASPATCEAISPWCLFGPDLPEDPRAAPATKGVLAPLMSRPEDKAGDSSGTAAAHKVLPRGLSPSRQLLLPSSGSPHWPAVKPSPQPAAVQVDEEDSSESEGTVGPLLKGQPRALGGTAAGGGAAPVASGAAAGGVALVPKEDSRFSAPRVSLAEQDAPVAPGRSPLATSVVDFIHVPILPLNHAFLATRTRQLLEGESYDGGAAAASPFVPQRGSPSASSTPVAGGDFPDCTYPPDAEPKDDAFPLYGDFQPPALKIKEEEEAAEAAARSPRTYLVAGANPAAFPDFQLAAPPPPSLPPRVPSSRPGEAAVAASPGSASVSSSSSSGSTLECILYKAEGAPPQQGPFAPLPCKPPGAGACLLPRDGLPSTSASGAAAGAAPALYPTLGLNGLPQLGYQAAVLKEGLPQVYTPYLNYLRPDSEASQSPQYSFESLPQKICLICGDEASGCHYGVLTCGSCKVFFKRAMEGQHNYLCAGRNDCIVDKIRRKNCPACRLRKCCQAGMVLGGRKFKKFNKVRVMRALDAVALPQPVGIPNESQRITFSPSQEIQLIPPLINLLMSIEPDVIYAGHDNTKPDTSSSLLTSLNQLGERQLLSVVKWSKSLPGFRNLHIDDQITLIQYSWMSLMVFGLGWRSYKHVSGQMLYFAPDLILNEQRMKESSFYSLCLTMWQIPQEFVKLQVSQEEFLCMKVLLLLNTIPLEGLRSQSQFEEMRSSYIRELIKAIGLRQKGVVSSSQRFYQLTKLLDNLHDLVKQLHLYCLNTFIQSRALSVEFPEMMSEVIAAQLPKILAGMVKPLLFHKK
Description: Bindung der Verbindung I an den Progesteronrezeptor

PR-B = target: T2, PR-B (Homo sapiens, UniProt P06401); assay: PR-B antagonism and agonism; format: cell-based
T2 sequence (P06401 1-933): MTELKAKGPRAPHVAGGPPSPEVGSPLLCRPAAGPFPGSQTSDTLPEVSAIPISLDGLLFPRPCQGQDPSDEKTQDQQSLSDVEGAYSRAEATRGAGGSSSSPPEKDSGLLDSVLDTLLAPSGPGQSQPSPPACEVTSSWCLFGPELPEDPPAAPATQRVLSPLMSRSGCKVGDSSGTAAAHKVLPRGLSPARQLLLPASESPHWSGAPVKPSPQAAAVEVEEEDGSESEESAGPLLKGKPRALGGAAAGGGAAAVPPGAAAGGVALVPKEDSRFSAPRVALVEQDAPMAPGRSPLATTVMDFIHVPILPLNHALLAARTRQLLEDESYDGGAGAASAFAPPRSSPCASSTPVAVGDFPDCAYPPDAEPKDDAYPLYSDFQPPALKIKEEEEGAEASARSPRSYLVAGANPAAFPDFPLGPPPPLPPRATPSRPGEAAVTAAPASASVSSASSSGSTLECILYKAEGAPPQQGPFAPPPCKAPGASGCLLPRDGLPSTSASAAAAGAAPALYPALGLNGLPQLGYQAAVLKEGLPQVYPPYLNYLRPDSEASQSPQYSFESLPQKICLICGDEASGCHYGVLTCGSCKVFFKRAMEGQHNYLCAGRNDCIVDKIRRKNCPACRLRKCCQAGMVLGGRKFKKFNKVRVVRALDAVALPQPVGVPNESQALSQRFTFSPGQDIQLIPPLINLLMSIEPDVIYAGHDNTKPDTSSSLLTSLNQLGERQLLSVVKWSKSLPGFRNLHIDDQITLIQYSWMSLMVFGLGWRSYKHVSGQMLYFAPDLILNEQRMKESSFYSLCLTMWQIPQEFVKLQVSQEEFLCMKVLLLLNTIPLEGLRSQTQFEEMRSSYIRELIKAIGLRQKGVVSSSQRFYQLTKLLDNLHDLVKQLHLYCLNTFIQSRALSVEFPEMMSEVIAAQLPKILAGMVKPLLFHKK
Description: PR-B Antagonismus und Agonismus

5α-Reduktase-Typ2 = target: T3, 5α-Reduktase-Typ2 (Homo sapiens, UniProt P31213); assay: 5α-reductase type 2 activity in genital skin homogenates; format: biochemical; details: Genitalhaut-Homogenate, optimised conditions, pH 5.5
T3 construct: In Genitalhaut-Homogenaten unter optimierten Bedingungen bei pH 5.5; from tissue; host or cells: genital skin homogenate
T3 sequence (P31213 1-254): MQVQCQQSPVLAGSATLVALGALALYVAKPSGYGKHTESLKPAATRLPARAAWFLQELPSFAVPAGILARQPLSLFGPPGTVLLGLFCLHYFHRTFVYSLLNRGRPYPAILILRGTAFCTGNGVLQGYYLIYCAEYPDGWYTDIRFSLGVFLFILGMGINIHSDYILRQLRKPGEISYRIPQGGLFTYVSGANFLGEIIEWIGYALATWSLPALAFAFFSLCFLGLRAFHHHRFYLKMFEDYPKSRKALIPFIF
Description: Nachfolgend sind beispielhafte Daten zur Progesteronrezeptorbindung, 5α-Reduktase-Typ2-Aktivität in Genitalhaut-Homogenaten und in vivo- Daten am Beispiel von (E)-17α-Fluor-3-oxo-estr-4-en-17β-carbaldehyd oxim aufgeführt

Maus = assay: Gestagenic activity in the pregnancy maintenance test, mouse; format: in vivo

SMILES: C[C@]12CC[C@H]3[C@@H](CCC4=CC(=O)CC[C@@H]43)[C@@H]1CC[C@]2(F)/C=N/O [Verbindung 7, (E)-17α-Fluor-3-oxo-estr-4-en-17β-carbaldehyd oxim]
- Relative Bindungsaffinität RBA[%] (Progesteronrezeptor): 131 ± 9%
- EC50 (PR-B; agonist mode, read-out: Agonismus IC50): 0.25 nM
- IC50 (PR-B; antagonist mode, read-out: Antagonismus IC50): 0.339 nM
- IC50 (5α-Reduktase-Typ2): 245 nM
- Rate der erhaltenen Graviditäten (Maus; Dosis 0,03 mg/Tier/Tag): 2/2
- Rate der erhaltenen Graviditäten (Maus; Dosis 0,3 mg/Tier/Tag): 3/3
- Rate der erhaltenen Graviditäten (Maus; Dosis 0,003 mg/Tier/Tag): 0/3
